Measured values taken from PubChem BioAssay AID190 (DTP/NCI, 2004).
Values joined by “and” are separate entries in the source; they are usually repeats but may differ in a detail not shown here. Equal entries are not always repeated. Toxic doses and inconclusive results are not listed. Rule for the calls: active = survival T/C of 150% or more; inactive = T/C below 125% in these data.

Test system: AKR/Lw mice, AKR lymphoma ip, median survival T/C
Test: NCI In Vivo Anticancer Drug Screen. Data for tumor model Lymphoma AKR (Transplanted) (intraperitoneal) in AKR/Lw mice
Details: endpoint: median survival time, higher = longer survival
Procedure: The antitumor activity of compounds was measured in mice bearing transplantable tumors. Survival or tumor size were measured and the results are expressed as the measurement made in the treated group (T) divided by the measurement made in the vehicle treated control group (C). The tumor model used in this assay is Lymphoma AKR (Transplanted) (intraperitoneal) in AKR/Lw mice

[1] = dose: 100.0 mg/kg/injection, schedule: Q01DX001 (ip), vehicle: saline

Measured: T/C

CC1CCC(NC(=O)N(CCCl)N=O)CC1 (configuration not stated)
inactive: dose: 1.25 mg/kg/injection, schedule: Q14DX003 (ip), vehicle: saline with Tween-80 112 % of control | dose: 2.0 mg/kg/injection, schedule: Q04DX003 (ip), vehicle: saline with Tween-80 106 % of control | dose: 2.0 mg/kg/injection, schedule: Q07DX004 (ip), vehicle: saline with Tween-80 113 % of control | dose: 2.5 mg/kg/injection, schedule: Q01DX006 (ip), vehicle: saline with Tween-80 93 % of control | dose: 2.5 mg/kg/injection, schedule: Q09DX002 (ip), vehicle: saline with Tween-80 102 % of control | dose: 2.5 mg/kg/injection, schedule: Q10DX002 (ip), vehicle: saline with Tween-80 108 % of control | dose: 2.5 mg/kg/injection, schedule: Q14DX003 (ip), vehicle: saline with Tween-80 108 % of control and 112 % of control (2×) | dose: 3.0 mg/kg/injection, schedule: Q01DX001 (ip), vehicle: saline with Tween-80 111 % of control | dose: 4.4 mg/kg/injection, schedule: Q04DX003 (ip), vehicle: saline with Tween-80 92 % of control | dose: 4.4 mg/kg/injection, schedule: Q07DX004 (ip), vehicle: saline with Tween-80 124 % of control | dose: 4.8 mg/kg/injection, schedule: Q01DX001 (ip), vehicle: saline with Tween-80 116 % of control | dose: 5.0 mg/kg/injection, schedule: Q01DX006 (ip), vehicle: saline with Tween-80 90 % of control | dose: 5.0 mg/kg/injection, schedule: Q09DX002 (ip), vehicle: saline with Tween-80 101 % of control | dose: 5.0 mg/kg/injection, schedule: Q10DX002 (ip), vehicle: saline with Tween-80 94 % of control | dose: 6.25 mg/kg/injection, schedule: Q07DX003 (ip), vehicle: saline 106 % of control and 118 % of control | dose: 6.7 mg/kg/injection, schedule: Q07DX004 (ip), vehicle: saline with Tween-80 118 % of control | dose: 7.5 mg/kg/injection, schedule: Q01DX006 (ip), vehicle: saline with Tween-80 120 % of control | dose: 7.5 mg/kg/injection, schedule: Q09DX002 (ip), vehicle: saline with Tween-80 101 % of control | dose: 8.0 mg/kg/injection, schedule: Q09DX002 (ip), vehicle: saline with Tween-80 86 % of control | dose: 10.0 mg/kg/injection, schedule: Q01DX006 (ip), vehicle: saline with Tween-80 112 % of control | dose: 10.0 mg/kg/injection, schedule: Q04DX003 (ip), vehicle: saline with Tween-80 66 % of control | dose: 10.0 mg/kg/injection, schedule: Q04DX004 (ip), vehicle: Klucel (hydroxypropylcellulose) (HPC) 86 % of control | dose: 10.0 mg/kg/injection, schedule: Q07DX004 (ip), vehicle: saline with Tween-80 107 % of control | dose: 10.0 mg/kg/injection, schedule: Q09DX002 (ip), vehicle: saline with Tween-80 107 % of control (2×) and 117 % of control | dose: 10.0 mg/kg/injection, schedule: Q10DX002 (ip), vehicle: saline with Tween-80 116 % of control | dose: 11.0 mg/kg/injection, schedule: Q01DX001 (ip), vehicle: saline with Tween-80 106 % of control | dose: 12.0 mg/kg/injection, schedule: Q01DX001 (ip), vehicle: saline 103 % of control | dose: 13.5 mg/kg/injection, schedule: Q10DX002 (ip), vehicle: saline with Tween-80 104 % of control | dose: 15.0 mg/kg/injection, schedule: Q04DX004 (ip), vehicle: Klucel (hydroxypropylcellulose) (HPC) 94 % of control | dose: 15.0 mg/kg/injection, schedule: Q14DX003 (ip), vehicle: saline with Tween-80 109 % of control | dose: 16.0 mg/kg/injection, schedule: Q01DX001 (ip), vehicle: saline with Tween-80 111 % of control | dose: 16.0 mg/kg/injection, schedule: Q09DX002 (ip), vehicle: saline with Tween-80 86 % of control | dose: 20.0 mg/kg/injection, schedule: Q04DX004 (ip), vehicle: Klucel (hydroxypropylcellulose) (HPC) 86 % of control | dose: 25.0 mg/kg/injection, schedule: Q07DX003 (ip), vehicle: saline 118 % of control and 121 % of control | dose: 27.0 mg/kg/injection, schedule: Q10DX002 (ip), vehicle: saline with Tween-80 116 % of control | dose: 32.0 mg/kg/injection, schedule: Q09DX002 (ip), vehicle: saline with Tween-80 80 % of control | dose: 36.0 mg/kg/injection, schedule: Q01DX001 (ip), vehicle: saline with Tween-80 116 % of control | dose: 45.0 mg/kg/injection, schedule: Q10DX002 (ip), vehicle: saline with Tween-80 103 % of control | dose: 48.0 mg/kg/injection, schedule: Q01DX001 (ip), vehicle: saline 100 % of control and 117 % of control | dose: 54.0 mg/kg/injection, schedule: Q10DX002 (ip), vehicle: saline with Tween-80 55 % of control
active: dose: 36.0 mg/kg/injection, schedule: Q01DX001 (ip), vehicle: saline 262 % of control

O=C[C@@H](CO)O[C@H](C=O)n1cnc2c(=O)[nH]cnc21
103 % of control and 238 % of control: dose: 75.0 mg/kg/injection, schedule: Q01DX009 (ip), vehicle: saline
active: dose: 240.02 mg/kg/injection, schedule: Q04DX003 (ip), vehicle: water 222 % of control
inactive: dose: 3.0 mg/kg/injection, schedule: Q01DX009 (ip), vehicle: saline 104 % of control and 123 % of control | dose: 6.0 mg/kg/injection, schedule: Q01DX009 (ip), vehicle: saline 102 % of control and 108 % of control and 121 % of control | dose: 6.2 mg/kg/injection, schedule: Q04DX003 (ip), vehicle: saline 102 % of control | dose: 6.25 mg/kg/injection, schedule: Q01DX009 (ip), vehicle: saline 112 % of control | dose: 12.0 mg/kg/injection, schedule: Q01DX009 (ip), vehicle: saline 100 % of control and 112 % of control | dose: 12.5 mg/kg/injection, schedule: Q01DX009 (ip), vehicle: saline 94 % of control and 106 % of control | dose: 12.5 mg/kg/injection, schedule: Q04DX003 (ip), vehicle: saline 100 % of control and 105 % of control | dose: 24.0 mg/kg/injection, schedule: Q01DX009 (ip), vehicle: saline 112 % of control | dose: 25.0 mg/kg/injection, schedule: Q01DX001 (ip), vehicle: saline 89 % of control and 105 % of control | dose: 25.0 mg/kg/injection, schedule: Q04DX003 (ip), vehicle: saline 87 % of control and 113 % of control | dose: 50.0 mg/kg/injection, schedule: Q01DX001 (ip), vehicle: saline 89 % of control | dose: 60.0 mg/kg/injection, schedule: Q04DX003 (ip), vehicle: water 114 % of control | [1] 92 % of control and 97 % of control (2×) | dose: 500.0 mg/kg/injection, schedule: Q01DX001 (ip), vehicle: saline 120 % of control

COc1cc([C@@H]2c3cc4c(cc3[C@H](O)[C@H]3COC(=O)[C@@H]23)OCO4)cc(OC)c1OC
inactive: dose: 6.0 mg/kg/injection, schedule: Q01DX009 (ip), vehicle: Klucel (hydroxypropylcellulose) (HPC) 110 % of control | dose: 12.0 mg/kg/injection, schedule: Q01DX009 (ip), vehicle: Klucel (hydroxypropylcellulose) (HPC) 120 % of control

COc1ccc(/C=C2\CCC3C(=O)CCCC3(C)C2=O)cc1 (configuration not stated)
inactive: [1] 90 % of control | dose: 200.0 mg/kg/injection, schedule: Q01DX001 (ip), vehicle: saline 100 % of control | dose: 400.0 mg/kg/injection, schedule: Q01DX001 (ip), vehicle: saline 97 % of control

CC(C)c1c[nH]c(=O)[nH]c1=O
inactive: dose: 25.0 mg/kg/injection, schedule: Q04DX003 (ip), vehicle: Klucel (hydroxypropylcellulose) (HPC) 97 % of control | dose: 50.0 mg/kg/injection, schedule: Q04DX003 (ip), vehicle: Klucel (hydroxypropylcellulose) (HPC) 94 % of control | dose: 100.0 mg/kg/injection, schedule: Q04DX003 (ip), vehicle: Klucel (hydroxypropylcellulose) (HPC) 94 % of control | dose: 200.0 mg/kg/injection, schedule: Q01DX001 (ip), vehicle: Klucel (hydroxypropylcellulose) (HPC) 86 % of control | dose: 400.0 mg/kg/injection, schedule: Q01DX001 (ip), vehicle: Klucel (hydroxypropylcellulose) (HPC) 92 % of control
